Tested on: MDA-MB-436 breast cancer cells
Experiment: Cell proliferation assay, MDA-MB-436
Assay type: cell-based
Details: Homo sapiens, MDA-MB-436, 168 h; proliferation, 7 days; read-out: MDA-MB-436 Cell IC50
Protocol: Experimental Materials: MDA-MB-436 or UWB1.289 cell lines were purchased from Cobioer Biosciences Co. Ltd. (Nanjing, China). The STR identification results were a complete match, and mycoplasma testing was negative. MDA-MB-436 cells were cultured in DMEM complete medium containing 10% fetal bovine serum, 1% penicillin-streptomycin, 1% insulin, and 16 μg/mL glutathione; UWB1.289 cells were cultured in RMPI1640 complete medium containing 10% fetal bovine serum and 1% penicillin-streptomycin.
1. MDA-MB-436 or UWB1.289 cells were cultured in the aforementioned medium (culture conditions: 37° C., 5.0% CO2 in air) until they reached the logarithmic growth phase. The cells were then digested with trypsin containing 0.25% EDTA, centrifuged at 1000 rpm, and the supernatant was discarded. Cell culture medium was added, and the cell suspension was adjusted to 2×10^4/mL after counting. 135 μL of the cell suspension per well was taken and cultured in a 96-well cell culture plate for 16 hours (culture conditions: 37° C., 5.0% CO2 in air).
2. The test compounds, stored at a concentration of 10 mM, were diluted 2.5 times with DMSO and then serially diluted in a 1:3 gradient (9 gradients). The gradient-diluted samples were further diluted 40 times with serum-free medium, and 15 μL of each was added to the 96-well cell culture plate. The positive control group received serum-free medium containing the same concentration of DMSO, and the negative control group received medium without cells. The cells were then cultured for an additional 7 days.
3. After the culture period, the cell culture plate was placed at room temperature for 30 minutes. Then, 100 μL of CellCounting-Lite 2.0 reagent (Vazyme, #DD1101) was added to each well, mixed thoroughly, and incubated in the dark at room temperature for 10 minutes. The luminescence signal was read using a Synergy HTX multi-mode reader.
(§1) 4. Data analysis was performed using GraphPad Prism 8.0 software. The inhibition rate (%) was calculated as 100*(average luminescence signal of the positive control group−luminescence signal of the compound)/(average luminescence signal of the positive control group−average luminescence signal of the negative control group). The IC50 value was obtained by plotting the logarithm of the compound concentration against the percentage inhibition rate.

SMILES	IC50 [nM]
CNC(=O)c1ccc(N2CCN(Cc3cnc4c(C)c(C(F)(F)F)c(=O)[nH]c4c3)CC2CC#N)cn1 (stereo not shown) [Compound 73, 5-(2-(cyanomethyl)-4-((8-methyl-6-oxo-7-(trifluoromethyl)-5,6-dihydro-1,5-naphthyridin-3-yl)methyl)piperazin-1-yl)-N-methylpicolinamide]	14.5
CNC(=O)c1ccc(C2=CCN(Cc3cnc4c(C)c(C(F)(F)F)c(=O)[nH]c4c3)CC2C)cn1 (stereo not shown) [Compound 80, N,3′-dimethyl-1′-((8-methyl-6-oxo-7-(trifluoromethyl)-5,6-dihydro-1,5-naphthyridin-3-yl)methyl)-1′,2′,3′,6′-tetrahydro-[3,4′-bipyridine]-6-carboxamide]	13.9
CNC(=O)c1ccc(C2=C(C)CN(Cc3cnc4c(C)c(C(F)(F)F)c(=O)[nH]c4c3)CC2)cn1 [Compound 81, N,5′-dimethyl-1′-((8-methyl-6-oxo-7-(trifluoromethyl)-5,6-dihydro-1,5-naphthyridin-3-yl)methyl)-1′,2′,3′,6′-tetrahydro-[3,4′-bipyridine]-6-carboxamide]	13.2
CNC(=O)c1ccc(C2=CCN(Cc3cnc4c(C)c(C(F)(F)F)c(=O)[nH]c4c3)CC2)nc1 [Compound 82, N-methyl-1′-((8-methyl-6-oxo-7-(trifluoromethyl)-5,6-dihydro-1,5-naphthyridin-3-yl)methyl)-1′,2′,3′,6′-tetrahydro-[2,4′-bipyridine]-5-carboxamide]	5.83
CNC(=O)c1ccc(N2CCN(Cc3cnc4c(C)c(C(F)(F)F)c(=O)[nH]c4c3)C[C@H]2C#N)cn1 [Compound 86, (S)-5-(2-cyano-4-((8-methyl-6-oxo-7-(trifluoromethyl)-5,6-dihydro-1,5-naphthyridin-3-yl)methyl)piperazin-1-yl)-N-methylpicolinamide]	14.8
CNC(=O)c1ccc(N2CCN(Cc3ccc4c(F)c(C)c(=O)[nH]c4c3)CC2)cn1 [Compound 94, 5-(4-((4-fluoro-3-methyl-2-oxo-1,2-dihydroquinolin-7-yl)methyl)piperazin-1-yl)-N-methylpicolinamide]	5.69
[2H]C([2H])([2H])NC(=O)c1ccc(N2CCN(Cc3cnc4c(C)c(C(F)(F)F)c(=O)[nH]c4c3)CC2)cn1 [Compound 95, N-(methyl-ds)-5-(4-((8-methyl-6-oxo-7-(trifluoromethyl)-5,6-dihydro-1,5-naphthyridin-3-yl)methyl)piperazin-1-yl)picolinamide]	2.13
Cc1c(C(F)(F)F)c(=O)[nH]c2cc(CN3CCN(c4ccc(C(=O)NCCO)nc4)CC3)cnc12 [Compound 96, N-(2-hydroxyethyl)-5-(4-((8-methyl-6-oxo-7-(trifluoromethyl)-5,6-dihydro-1,5-naphthyridin-3-yl)methyl)piperazin-1-yl)picolinamide]	9.34
Cc1c(C(F)(F)F)c(=O)[nH]c2cc(CN3CCN(c4ccc(C(=O)NCC(F)(F)F)nc4)CC3)cnc12 [Compound 97, 5-(4-((8-methyl-6-oxo-7-(trifluoromethyl)-5,6-dihydro-1,5-naphthyridin-3-yl)methyl)piperazin-1-yl)-N-(2,2,2-trifluoroethyl)picolinamide]	2.12
CCNC(=O)c1ccc(N2CCN(Cc3cnc4c(C)c(C(F)(F)F)c(=O)[nH]c4c3)CC2)cn1 [Compound 98, N-ethyl-5-(4-((8-methyl-6-oxo-7-(trifluoromethyl)-5,6-dihydro-1,5-naphthyridin-3-yl)methyl)piperazin-1-yl)picolinamide]	1.22
CNC(=O)c1ccc(N2CCN(Cc3cnc4c(C)c(C(F)(F)F)c(=O)[nH]c4c3F)CC2)cn1 [Compound 101, 5-(4-((4-fluoro-8-methyl-6-oxo-7-(trifluoromethyl)-5,6-dihydro-1,5-naphthyridin-3-yl)methyl)piperazin-1-yl)-N-methylpicolinamide]	8.99
CNC(=O)c1ccc(N2CCN(Cc3cnc4c(F)c(C)c(=O)[nH]c4c3)CC2)cn1 [Compound 103, 5-(4-((8-fluoro-7-methyl-6-oxo-5,6-dihydro-1,5-naphthyridin-3-yl)methyl)piperazin-1-yl)-N-methylpicolinamide]	3.76
CNC(=O)c1ccc(N2CCN(Cc3cnc4c(C)c(C(F)F)c(=O)[nH]c4c3)[C@H](C)C2)cn1 [Compound 104, (R)-5-(4-((7-(difluoromethyl)-8-methyl-6-oxo-5,6-dihydro-1,5-naphthyridin-3-yl)methyl)-3-methylpiperazin-1-yl)-N-methylpicolinamide]	6.5
CNC(=O)c1ccc(N2CCN(Cc3cnc4c(C)c(C(F)F)c(=O)[nH]c4c3)C[C@H]2C)cn1 [Compound 105, (R)-5-(4-((7-(difluoromethyl)-8-methyl-6-oxo-5,6-dihydro-1,5-naphthyridin-3-yl)methyl)-2-methylpiperazin-1-yl)-N-methylpicolinamide]	4.93
CNC(=O)c1ccc(C2=CCN(Cc3cnc4c(C)c(C(F)F)c(=O)[nH]c4c3)CC2)cn1 [Compound 106, 1′-((7-(difluoromethyl)-8-methyl-6-oxo-5,6-dihydro-1,5-naphthyridin-3-yl)methyl)-N-methyl-1′,2′,3′,6′-tetrahydro-[3,4′-bipyridine]-6-carboxamide]	0.78

Tested on: not listed separately
Experiment: Evaluation of pharmacokinetics in mice
Details: male, ICR (CD1), mouse, plasma, po, 10 mg/kg
Protocol: Test Objective: The pharmacokinetics of the example compounds of the present application were tested in mice. By measuring the drug concentration in mouse plasma, the pharmacokinetic behavior of the compounds of the present invention was studied to evaluate their pharmacokinetic characteristics.
Test Animals: 6-8 Week Old Male ICR (CD1) Mice
Oral Gavage Drug Preparation: An appropriate amount of the test compound was first weighed and dissolved in DMSO (Macklin cas: 67-68-5) to prepare a 20 mg/mL solution. Then, 75 μL of this solution was added to 150 μL of Solutol (Sigma cas: 70142-34-6), followed by 1.275 mL of 20% Captisol (Selleck cas: 182410-00-0), resulting in a final drug concentration of 1 mg/mL.
Intravenous Injection Drug Preparation: An appropriate amount of the test compound was first weighed and dissolved in DMSO (Macklin cas: 67-68-5) to prepare a 30 mg/mL solution. Then, 15 μL of this solution was added to 150 μL of Solutol (Sigma cas: 70142-34-6), followed by 1.335 mL of 20% Captisol (Selleck cas: 182410-00-0), resulting in a final drug concentration of 0.3 mg/mL.
Procedures: The mice were fasted overnight with free access to water before the experiment. Food was restored two hours after dosing. Blood samples were collected at different time points after intravenous injection or oral gavage of the test compound in mice, and the compound concentration in plasma was measured. Approximately 50 μL of blood was collected from each animal using a capillary sampling tube via the orbital venous plexus, with heparin sodium as an anticoagulant. Blood samples were placed on ice, centrifuged at 3500 r/min for 10 minutes to separate the plasma, and 20 μL of the collected plasma was added to 200 μL of acetonitrile (Merck cas: 75-05-8) containing 200 nM dexamethasone (Selleck cas: 50-02-2) as an internal standard. The mixture was centrifuged at 8000 r/min for 20 minutes. After centrifugation, 150 μL of the supernatant was transferred to a new centrifuge tube, and 150 μL of 0.1% formic acid (Fisher cas: 207868) was added. The mixture was mixed well, and 5 μL of the sample was subjected to quantitative analysis by liquid chromatography-mass spectrometry (Q-TOF LC/MS).
The test compound was serially diluted with DMSO to cover the compound concentrations expected in plasma samples to be tested, with a blank sample (containing only DMSO) included.
2 μL of each diluted sample at various concentrations was added to 18 μL of normal ICR mouse plasma, mixed, and then added to 200 μL of acetonitrile (Merck cas: 75-05-8) containing 200 nM dexamethasone (Selleck cas: 50-02-2) as an internal standard. The mixture was centrifuged for 20 minutes (8000 r/min). 150 μL of the supernatant was transferred to a new centrifuge tube, and 150 μL of 0.1% formic acid (Fisher cas: 207868) was added. The mixture was mixed well, and 5 μL of the sample was subjected to quantitative analysis by liquid chromatography-mass spectrometry (Q-TOF LC/MS).
The final standard curve was plotted using the concentration of the test compound after dilution on the abscissa and the ratio of the signal of the compound to the internal standard (dexamethasone) on the ordinate. The standard curve was generated using linear regression with GraphPad Prism 8 software (R2>0.9900).
Data Analysis: calculation of pharmacokinetic parameters: the concentration of the test compound in plasma at different time points after intravenous injection or oral gavage in ICR mice was determined based on the above standard curve, and pharmacokinetic parameters (T1/2, Cmax, AUC, etc.) were calculated using the Phoenix WinNonlin 8.1 non-compartmental analysis model.

SMILES	AUC(0-inf) [µg·h/mL]	Cmax [ng/mL]	half-life [h]
[2H]C([2H])([2H])NC(=O)c1ccc(N2CCN(Cc3cnc4c(C)c(C(F)(F)F)c(=O)[nH]c4c3)CC2)cn1 [Compound 95, N-(methyl-ds)-5-(4-((8-methyl-6-oxo-7-(trifluoromethyl)-5,6-dihydro-1,5-naphthyridin-3-yl)methyl)piperazin-1-yl)picolinamide]	2050	37500	38

Target: PARP1 (Homo sapiens (Human), UniProt P09874)
Experiment: PARP enzyme activity assay (PARP1 chemiluminescent assay kit)
Assay type: biochemical
Details: enzyme inhibitory activity, read-out: PARP-1 IC50
Excerpt: Experimental Materials: The PARP1 assay kit was purchased from BPS Bioscience, USA, specifically the 384-well chemiluminescent assay kit (Catalog No.: #80551).
Experimental Principle: PARP can catalyze the transfer of ADP-ribose residues from NAD+ to target substrates, thereby modifying proteins through ribosylation. This experiment measures PARP1 enzyme activity by detecting the poly(ADP-ribosylation) of histones by PARP1.
Preparation of Reagents and Test Compounds: The 10× assay buffer included in the kit was diluted to 1× with distilled water. The test compound (stock concentration of 10 mM) was diluted to 10 μM with a DMSO solution and then serially diluted in a 1:3 ratio. The serially diluted compounds were further diluted 10-fold with the 1× assay buffer.
Experimental Method: The procedure was carried out according to the kit's instructions:
1. The 5× histone mixture was diluted to 1× with PBS, and 25 μL was added to each well of a 384-well plate, incubating overnight at 4° C.
2. After incubation, 100 μL of PBST (0.05% Tween 20) was added to each well for washing, repeated three times. Then, 100 μL of blocking solution was added to each well and incubated at room temperature for 90 minutes.
3. After incubation, the wells were washed three times with PBST, and then 1.25 μL of 10× assay buffer, 1.25 μL of 10×PARP assay mixture, 2.5 μL of activation DNA (5×), and 7.5 μL of distilled water were added to each well.
4. […] The positive control group and the negative control group were added with 1× assay buffer containing the same concentration of DMSO.
5. Next, 10 μL of 2.5 ng/μL PARP1 enzyme was added to the test compound and positive control groups, while 10 μL of 1× assay buffer was added to the negative control group, and the mixture was incubated at room temperature for 60 minutes.
6. Streptavidin-HRP was diluted 1:50 with the blocking solution. After incubation, the plate was washed three times with PBST, and 25 μL of the diluted streptavidin-HRP solution was added to each well, incubating at room temperature for 30 minutes.
7. After incubation, the plate was washed three times with PBST, and 50 μL of the mixed substrate A and substrate B in equal volumes was added. The luminescence signal was immediately read on a Synergy HTX multi-mode reader.
as §1, with “8.” for “4.”, “%=100*(average” for “(%) was calculated as 100*(average”

Chain of PARP1 (P09874 whole entry): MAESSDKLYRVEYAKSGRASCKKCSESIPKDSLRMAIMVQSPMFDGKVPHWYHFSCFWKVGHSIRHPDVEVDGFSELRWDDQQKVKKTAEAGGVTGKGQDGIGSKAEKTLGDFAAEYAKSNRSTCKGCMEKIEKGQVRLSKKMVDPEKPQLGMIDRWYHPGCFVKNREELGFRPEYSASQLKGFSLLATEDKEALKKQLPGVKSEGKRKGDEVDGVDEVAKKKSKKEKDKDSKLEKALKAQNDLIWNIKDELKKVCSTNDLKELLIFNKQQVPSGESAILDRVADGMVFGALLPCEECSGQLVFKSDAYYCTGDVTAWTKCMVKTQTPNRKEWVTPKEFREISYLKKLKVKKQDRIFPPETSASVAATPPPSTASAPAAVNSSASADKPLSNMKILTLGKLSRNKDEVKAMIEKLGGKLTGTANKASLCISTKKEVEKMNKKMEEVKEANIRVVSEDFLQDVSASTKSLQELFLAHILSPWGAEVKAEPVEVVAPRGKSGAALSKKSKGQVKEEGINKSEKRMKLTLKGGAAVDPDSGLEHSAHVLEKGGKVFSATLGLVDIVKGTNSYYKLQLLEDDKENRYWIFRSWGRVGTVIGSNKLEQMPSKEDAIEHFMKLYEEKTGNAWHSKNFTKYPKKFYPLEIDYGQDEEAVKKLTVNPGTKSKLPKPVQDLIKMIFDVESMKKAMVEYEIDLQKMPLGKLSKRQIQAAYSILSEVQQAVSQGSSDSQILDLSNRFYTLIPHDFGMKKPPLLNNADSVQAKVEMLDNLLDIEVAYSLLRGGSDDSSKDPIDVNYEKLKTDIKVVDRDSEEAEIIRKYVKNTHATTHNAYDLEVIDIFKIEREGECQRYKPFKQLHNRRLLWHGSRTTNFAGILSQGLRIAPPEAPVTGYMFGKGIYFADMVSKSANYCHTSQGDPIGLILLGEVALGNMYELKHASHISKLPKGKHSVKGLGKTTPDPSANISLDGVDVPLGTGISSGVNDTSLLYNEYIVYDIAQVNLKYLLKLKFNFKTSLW

SMILES	IC50 [nM]
CNC(=O)c1ccc(N2CCN(Cc3cnc4c(C)c(C(F)(F)F)c(=O)[nH]c4c3)C(CC#N)C2)cn1 (stereo not shown) [Compound 3, 5-(3-(cyanomethyl)-4-((8-methyl-6-oxo-7-(trifluoromethyl)-5,6-dihydro-1,5-naphthyridin-3-yl)methyl)piperazin-1-yl)-N-methylpicolinamide]	1.53
CNC(=O)c1ccc(N2CCN(Cc3cnc4c(C)c(C(F)(F)F)c(=O)[nH]c4c3)C(CCO)C2)cn1 (stereo not shown) [Compound 5, 5-(3-(2-hydroxyethyl)-4-((8-methyl-6-oxo-7-(trifluoromethyl)-5,6-dihydro-1,5-naphthyridin-3-yl)methyl)piperazin-1-yl)-N-methylpicolinamide]	27.2
CNC(=O)c1ccc(N2CCN(Cc3cnc4c(C)c(C(F)(F)F)c(=O)[nH]c4c3)C(CO)C2)cn1 (stereo not shown) [Compound 6, 5-(3-(hydroxymethyl)-4-((8-methyl-6-oxo-7-(trifluoromethyl)-5,6-dihydro-1,5-naphthyridin-3-yl)methyl)piperazin-1-yl)-N-methylpicolinamide]	34.3
CNC(=O)c1ccc(N2CC3CCC(C2)N3Cc2cnc3c(C)c(C(F)(F)F)c(=O)[nH]c3c2)cn1 [Compound 12, N-methyl-5-(8-((8-methyl-6-oxo-7-(trifluoromethyl)-5,6-dihydro-1,5-naphthyridin-3-yl)methyl)-3,8-diazabicyclo[3.2.1]octan-3-yl)picolinamide]	2.25

Reference: patent publication US20250051324A1, “PARP INHIBITOR, PHARMACEUTICAL COMPOSITION COMPRISING SAME, AND USE THEREOF” (KEYTHERA (SUZHOU) BIO-PHARMACEUTICALS CO., LIMITED, priority 2021, published 2025)
